pIC50: −log10 of the molar value. Blank lines part the entries; values can stand above or below the compound they belong to.
Test system: MDA-MB-231 cells
Experiment: Cell proliferation assay (CellTiter-Glo), MDA-MB-231
Assay type: cell-based
Conditions: Homo sapiens, MDA-MB-231, 72 h, 72 h treatment, Celltiter-Glo luminescence
Procedure, shortened: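 Compounds tested over ten concentrations ([…]) for 72 h on EVSA-T cells in MEM/10% FBS and MDA-MB-231 cells in RPMI-1640/10% FBS, seeded at 10000/well. Luminescent CellTiter-Glo readout; IC50 fitted after normalisation to controls.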

Structure (SMILES): C[C@@H]1CN(CC(=O)N2CC(C)(C)c3c2cc(Cc2ccc(F)cc2)c2nn(Cc4ncn(C)n4)c(=O)n32)[C@@H](CN2CCOC[C@H]2C)CN1 [Compound 232, 4-(4-fluorobenzyl)-8,8-dimethyl-2-((1-methyl-1H-1,2,4-triazol-3-yl)methyl)-6-(2-((2R,5R)-5-methyl-2-(((R)-3-methylmorpholino)methyl)piperazin-1-yl)acetyl)-2,6,7,8-tetrahydro-1H-pyrrolo[2,3-e][1,2,4]triazolo[4,3-a]pyridin-1-one]
pIC50: 6.48

Structure (SMILES): C[C@@H]1CN(CC(=O)N2CC(C)(C)c3c2cc(Cc2ccc(F)cc2F)c2nncn32)[C@@H](CN2CCOC[C@H]2C)CN1 [Compound 155, 1-(4-(2,4-difluorobenzyl)-8,8-dimethyl-7,8-dihydro-6H-pyrrolo[2,3-e][1,2,4]triazolo[4,3-a]pyridin-6-yl)-2-((2R,5R)-5-methyl-2-(((R)-3-methylmorpholino)methyl)piperazin-1-yl)ethan-1-one]
pIC50: 6.14

Structure (SMILES): C[C@@H]1CN(CC(=O)N2CC(C)(C)c3c2cc(Cc2ccc(F)cc2)c2nc(C(F)(F)F)cn32)[C@@H](CN2CCN(CC#N)C[C@H]2C)CN1 [Compound 175, 2-((R)-4-(((2R,5R)-1-(2-(4-(4-fluorobenzyl)-8,8-dimethyl-2-(trifluoromethyl)-7,8-dihydro-6H-imidazo[1,2-a]pyrrolo[2,3-e]pyridin-6-yl)-2-oxoethyl)-5-methylpiperazin-2-yl)methyl)-3-methylpiperazin-1-yl)acetonitrile]
pIC50: 6.92

Structure (SMILES): C[C@@H]1CN(CC(=O)N2CC(C)(C)c3c2cc(Cc2ccc(F)cc2)c2nn(Cc4cccnn4)c(=O)n32)[C@@H](CN2CCOC[C@H]2C)CN1 [Compound 253, 4-(4-fluorobenzyl)-8,8-dimethyl-6-(2-((2R,5R)-5-methyl-2-(((R)-3-methylmorpholino)methyl)piperazin-1-yl)acetyl)-2-(pyridazin-3-ylmethyl)-2,6,7,8-tetrahydro-1H-pyrrolo[2,3-e][1,2,4]triazolo[4,3-a]pyridin-1-one]
pIC50: 6.64

Structure (SMILES): C[C@@H]1CN(CC(=O)N2CC(C)(C)c3c2cc(Cc2ccc(F)cc2)c2nn(CC(C)(C)O)c(=O)n32)[C@@H](CN2CC3CCC2CO3)CN1 (stereo partly drawn) [Compound 287, 6-(2-((2R,5R)-2-((2-oxa-5-azabicyclo[2.2.2]octan-5-yl)methyl)-5-methylpiperazin-1-yl)acetyl)-4-(4-fluorobenzyl)-2-(2-hydroxy-2-methylpropyl)-8,8-dimethyl-2,6,7,8-tetrahydro-1H-pyrrolo[2,3-e][1,2,4]triazolo[4,3-a]pyridin-1-one]
pIC50: 6.32

Structure (SMILES): C[C@@H]1CN(CC(=O)N2CC(C)(C)c3c2cc(Cc2ccc(F)cc2)c2nn(CC(C)(C)O)c(=O)n32)[C@@H](CN2C[C@H]3C[C@@H]2CO3)CN1 [Compound 284, 6-(2-((2R,5R)-2-(((1R,4R)-2-oxa-5-azabicyclo[2.2.1]heptan-5-yl)methyl)-5-methylpiperazin-1-yl)acetyl)-4-(4-fluorobenzyl)-2-(2-hydroxy-2-methylpropyl)-8,8-dimethyl-2,6,7,8-tetrahydro-1H-pyrrolo[2,3-e][1,2,4]triazolo[4,3-a]pyridin-1-one]
pIC50: 6.60

Structure (SMILES): C[C@@H]1CN(CC(=O)N2CC(C)(C)c3c2cc(Cc2ccc(F)cc2)n2c(C(F)(F)F)nnc32)[C@@H](CN2CCOC[C@H]2C)CN1 [Example 22, 1-(5-(4-fluorobenzyl)-9,9-dimethyl-3-(trifluoromethyl)-8,9-dihydro-7H-pyrrolo[3,2-c][1,2,4]triazolo[4,3-a]pyridin-7-yl)-2-((2R,5R)-5-methyl-2-(((R)-3-methylmorpholino)methyl)piperazin-1-yl)ethan-1-one]
pIC50: 5.43

Structure (SMILES): CC(=O)N1CCN(C[C@H]2CN[C@H](C)CN2CC(=O)N2CC(C)(C)c3c2cc(Cc2ccc(F)cc2)c2nn(CC(C)(C)O)c(=O)n32)[C@H](C)C1 [Compound 282, 6-(2-((2R,5R)-2-(((R)-4-acetyl-2-methylpiperazin-1-yl)methyl)-5-methylpiperazin-1-yl)acetyl)-4-(4-fluorobenzyl)-2-(2-hydroxy-2-methylpropyl)-8,8-dimethyl-2,6,7,8-tetrahydro-1H-pyrrolo[2,3-e][1,2,4]triazolo[4,3-a]pyridin-1-one]
pIC50: 6.18

Structure (SMILES): C[C@@H]1CN(CC(=O)N2CC(C)(C)c3c2cc(Cc2ccc(F)cc2)c2nc(C(F)(F)F)cn32)[C@@H](CN2[C@H](C)COC[C@@H]2C)CN1 [Compound 173, 2-((2R,5R)-2-(((3S,5R)-3,5-dimethylmorpholino)methyl)-5-methylpiperazin-1-yl)-1-(4-(4-fluorobenzyl)-8,8-dimethyl-2-(trifluoromethyl)-7,8-dihydro-6H-imidazo[1,2-a]pyrrolo[2,3-e]pyridin-6-yl)ethan-1-one]
pIC50: 6.28

Structure (SMILES): C[C@@H]1CN(CC(=O)N2CC(C)(C)c3c2cc(Cc2ccc(F)cc2)c2scnc32)[C@@H](CN2CCOC[C@H]2C)CN1 [Example 28, 1-(4-(4-fluorobenzyl)-8,8-dimethyl-7,8-dihydro-6H-thiazolo[4,5-e]indol-6-yl)-2-((2R,5R)-5-methyl-2-(((R)-3-methylmorpholino)methyl)piperazin-1-yl)ethan-1-one]
pIC50: 6.48

Structure (SMILES): C[C@@H]1CN(CC(=O)N2CC(C)(C)c3c2cc(C(=O)c2ccc(F)cc2)c2ncnn32)[C@@H](CN2CCOC[C@H]2C)CN1 [Compound 139, 1-(4-(4-fluorobenzoyl)-8,8-dimethyl-7,8-dihydro-6H-pyrrolo[2,3-e][1,2,4]triazolo[1,5-a]pyridin-6-yl)-2-((2R,5R)-5-methyl-2-(((R)-3-methylmorpholino)methyl)piperazin-1-yl)ethan-1-one]
pIC50: 6.15

Structure (SMILES): C[C@@H]1CN(CC(=O)N2CC(C)(C)c3c2cc(Cc2ccc(F)cc2)c2nn(Cc4ncccn4)c(=O)n32)[C@@H](CN2CCOC[C@H]2C)CN1 [Compound 221, 4-(4-fluorobenzyl)-8,8-dimethyl-6-(2-((2R,5R)-5-methyl-2-(((R)-3-methylmorpholino)methyl)piperazin-1-yl)acetyl)-2-(pyrimidin-2-ylmethyl)-2,6,7,8-tetrahydro-1H-pyrrolo[2,3-e][1,2,4]triazolo[4,3-a]pyridin-1-one]
pIC50: 6.72

Structure (SMILES): Cc1nc(C)c(Cc2cc3c(n4ncnc24)C(C)(C)CN3C(=O)CN2C[C@@H](C)NC[C@@H]2CN2CCOC[C@H]2C)s1 [Compound 158, 1-(4-((2,4-dimethylthiazol-5-yl)methyl)-8,8-dimethyl-7,8-dihydro-6H-pyrrolo[2,3-e][1,2,4]triazolo[1,5-a]pyridin-6-yl)-2-((2R,5R)-5-methyl-2-(((R)-3-methylmorpholino)methyl)piperazin-1-yl)ethan-1-one]
pIC50: 6.14

Second part, the compound after the results:

pIC50: 7.01
Structure (SMILES): CCc1ncc2c(Cc3ccc(F)cc3)cc3c(n12)C(C)(C)CN3C(=O)CN1C[C@@H](C)NC[C@@H]1CN1CCOC[C@H]1C [Example 4, 1-(1-ethyl-4-(4-fluorobenzyl)-8,8-dimethyl-7,8-dihydro-6H-imidazo[1,5-a]pyrrolo[2,3-e]pyridin-6-yl)-2-((2R,5R)-5-methyl-2-(((R)-3-methylmorpholino)methyl)piperazin-1-yl)ethan-1-one]

pIC50: 6.40
Structure (SMILES): CCOC(=O)c1cnn2c3c(cc(Cc4ccc(F)cc4)c12)N(C(=O)CN1C[C@@H](C)NC[C@@H]1CN1CCOC[C@H]1C)CC3(C)C [Compound 120, ethyl 4-(4-fluorobenzyl)-8,8-dimethyl-6-(2-((2R,5R)-5-methyl-2-(((R)-3-methylmorpholino)methyl)piperazin-1-yl)acetyl)-7,8-dihydro-6H-pyrazolo[1,5-a]pyrrolo[2,3-e]pyridine-3-carboxylate]

pIC50: 7.02
Structure (SMILES): CC(C)c1nc2c(Cc3ccc(F)cc3)cc3c(n2n1)C(C)(C)CN3C(=O)CN1C[C@@H](C)NC[C@@H]1CN1CCOC[C@H]1C [Compound 171, 1-(4-(4-fluorobenzyl)-2-isopropyl-8,8-dimethyl-7,8-dihydro-6H-pyrrolo[2,3-e][1,2,4]triazolo[1,5-a]pyridin-6-yl)-2-((2R,5R)-5-methyl-2-(((R)-3-methylmorpholino)methyl)piperazin-1-yl)ethan-1-one]

pIC50: 6.46
Structure (SMILES): C[C@@H]1CN(CC(=O)N2CC(C)(C)c3c2cc(Cc2ccc(F)cc2)c2nn(CC(N)=O)c(=O)n32)[C@@H](CN2CCOC[C@H]2C)CN1 [Compound 217, 2-(4-(4-fluorobenzyl)-8,8-dimethyl-6-(2-((2R,5R)-5-methyl-2-(((R)-3-methylmorpholino)methyl)piperazin-1-yl)acetyl)-1-oxo-7,8-dihydro-1H-pyrrolo[2,3-e][1,2,4]triazolo[4,3-a]pyridin-2(6H)-yl)acetamide]

pIC50: 5.88
Structure (SMILES): Cc1nnc2c(Cc3ccc(F)cc3F)cc3c(n12)C(C)(C)CN3C(=O)CN1C[C@@H](C)NC[C@@H]1CN1CCOC[C@H]1C [Compound 156, 1-(4-(2,4-difluorobenzyl)-1,8,8-trimethyl-7,8-dihydro-6H-pyrrolo[2,3-e][1,2,4]triazolo[4,3-a]pyridin-6-yl)-2-((2R,5R)-5-methyl-2-(((R)-3-methylmorpholino)methyl)piperazin-1-yl)ethan-1-one]

pIC50: 5.67
Structure (SMILES): C[C@@H]1CN(CC(=O)N2CC(C)(C)c3c2cc(Cc2ccc(F)cc2)c2nc(P(C)(C)=O)nn32)[C@@H](CN2CCOC[C@H]2C)CN1 [Compound 209, 1-(2-(dimethylphosphoryl)-4-(4-fluorobenzyl)-8,8-dimethyl-7,8-dihydro-6H-pyrrolo[2,3-e][1,2,4]triazolo[1,5-a]pyridin-6-yl)-2-((2R,5R)-5-methyl-2-(((R)-3-methylmorpholino)methyl)piperazin-1-yl)ethan-1-one]

pIC50: 5.86
Structure (SMILES): C[C@@H]1CN(CC(=O)N2CC(C)(C)c3c2cc(Cc2ccc(F)cc2)c2nnc(N)n32)[C@@H](CN2CCOC[C@H]2C)CN1 [Compound 136, 1-(1-amino-4-(4-fluorobenzyl)-8,8-dimethyl-7,8-dihydro-6H-pyrrolo[2,3-e][1,2,4]triazolo[4,3-a]pyridin-6-yl)-2-((2R,5R)-5-methyl-2-(((R)-3-methylmorpholino)methyl)piperazin-1-yl)ethan-1-one]

From patent publication US20250179073A1, “TRICYCLIC HETEROCYCLE COMPOUNDS AS IAP ANTAGONISTS” (Ascentage Pharma (Suzhou) Co., Ltd., priority 2022, published 2025)
